Patent US20090142323A1, “METHODS FOR TREATING A DISORDER BY REGULATING GPRC6A” (priority 2007, published 2009)

Tests used:
[1] = system: seminal vesicles; assay: seminal vesicle size after orchiectomy and testosterone replacement; assay type: in vivo, mouse; settings: testosterone slow releasing pellet
Description: First, the male WT and GPRC6A^−/− littermates will be castrated by removal of the testicles (orchiectomy) and hormone recovered by implanting testosterone slow releasing pellet.

[2] = system: HEK-293 cells; assay: phospho-ERK in non-transfected HEK-293 control cells; assay type: cell-based, human; settings: control HEK293, no GPRC6A
Method: (§1) Equal amounts of lysates were subjected to 10% SDS-PAGE, and phospho-ERK1/2 levels were determined by immunoblotting using antiphospho-ERK1/2 mitogen-activated protein kinase antibody (Cell Signaling Technology). […] An anti-peptide antibody was raised in a rabbit against a peptide ([…] (SEQ ID NO: 27)) corresponding to a sequence in the extracellular domain of mouse GPRC6A (in exon 1 of mouse GPRC6A gene) produced by Abgent (San Diego, Calif.). For phospho-ERK, the phospho-ERK1/2 levels were determined by immunoblotting using anti-phospho-ERK1/2 mitogen-activated protein kinase antibody (Cell Signaling Technology). Urinary β2-microglobulin was detected by rabbit polyclonal anti-β2-microglobulin antibody (Abcam Inc.). For aromatase expression analysis, the rabbit polyclonal anti-aromatase antibody (Abcam Inc.) and goat anti-rabbit IgG HRP secondary antibody (Santa Cruz Biotechnology Inc.) were used. Mouse anti-Actin antibody (Santa Cruz Biotechnology Inc.) was used for control protein loading.

[3] = target: T1, GPRC6A (Mus musculus, UniProt Q8K4Z6); assay: [3H]testosterone binding to membrane fractions of HEK-293 cells; design: expressed in transfected cells
T1 sequence (Q8K4Z6 21-928): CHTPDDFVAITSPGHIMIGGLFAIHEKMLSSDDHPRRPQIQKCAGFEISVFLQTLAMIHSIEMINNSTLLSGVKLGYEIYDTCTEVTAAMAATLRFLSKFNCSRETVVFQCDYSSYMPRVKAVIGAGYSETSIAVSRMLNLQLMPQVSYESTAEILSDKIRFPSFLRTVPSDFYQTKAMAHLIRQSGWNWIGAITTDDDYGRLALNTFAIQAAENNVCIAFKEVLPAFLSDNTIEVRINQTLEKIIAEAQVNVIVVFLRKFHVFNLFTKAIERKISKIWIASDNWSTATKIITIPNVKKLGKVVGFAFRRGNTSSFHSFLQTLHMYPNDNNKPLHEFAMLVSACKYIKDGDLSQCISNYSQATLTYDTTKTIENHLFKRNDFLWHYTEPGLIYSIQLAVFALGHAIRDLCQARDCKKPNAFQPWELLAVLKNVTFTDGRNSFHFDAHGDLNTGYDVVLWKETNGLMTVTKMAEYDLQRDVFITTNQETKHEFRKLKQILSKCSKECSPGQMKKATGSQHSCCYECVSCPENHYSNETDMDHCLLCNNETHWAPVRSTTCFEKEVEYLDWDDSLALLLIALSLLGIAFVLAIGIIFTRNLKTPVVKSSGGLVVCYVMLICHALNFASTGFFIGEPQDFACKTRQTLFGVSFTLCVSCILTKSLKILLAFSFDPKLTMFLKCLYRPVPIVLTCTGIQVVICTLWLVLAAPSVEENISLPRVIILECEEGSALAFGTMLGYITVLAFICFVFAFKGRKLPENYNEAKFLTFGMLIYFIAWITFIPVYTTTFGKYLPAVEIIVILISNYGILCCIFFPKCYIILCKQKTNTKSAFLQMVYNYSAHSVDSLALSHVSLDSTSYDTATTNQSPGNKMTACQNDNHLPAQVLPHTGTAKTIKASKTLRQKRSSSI
Method: Membranes from HEK and HEK stably transfected with GPRC6A were prepared and stored at −80° C. The membrane preparations were diluted to 0.15-0.5 mg protein/ml in binding buffer (in mM: 20 HEPES, 100 NaCl, 6 MgCl2, 1 EDTA, and 1 EGTA) immediately before all binding assays. Total binding saturation curves were generated by incubating 250 μl of membrane preparation and 250 μl of [^3H]Testoterone (Testosterone-[1,2,6,7-3H(N)]; 1 mCi; Sigma, Chemicals, St. Louis, Mo.), dissolved in binding buffer (in mM: 20 HEPES, 100 NaCl, 6 MgCl2, 1 EDTA, and 1 EGTA) for final reaction concentrations ranging from 0.3 to 25 nM, for 40 min. After the 40-min incubation, the binding reactions were terminated by rapidly filtering 400 μl of the reaction over a presoaked Whatman, glass-fiber filter (pore size, 1 μm) to separate bound steroid from free steroid. The filter was immediately washed twice with 12.5 ml of wash buffer (PBS) and placed in a scintillation vial. Radioactivity was counted in a liquid scintillation counter (Beckman Instruments, Fullerton, Calif.). All steps of the binding assays were conducted at 4° C.

[4] = system: bone marrow and testes; assay: phospho-ERK activity and Egr-1 expression in bone marrow and testes in vivo; design: species or system mouse; settings: 200 mg/kg intraperitoneally
Method: (§2) To establish a linkage between non-genomic effects of androgens and tissue responses in vivo, we examined the impact of loss of GPRC6A on the capacity of testosterone to stimulate phospho-ERK activity and early growth-responsive 1 (Egr-1) expression in bone marrow and testes in vivo (FIGS. 8D and 8E). To accomplish this, we administered testosterone at a dose of 200 MG/KG or vehicle intraperitonealy to wild-type and GPRC6A^−/− male mice.
as §2, with “(FIG.” for “in vivo (FIGS. 8D and”, “mg/kg” for “MG/KG”, “intraperitoneally” for “intraperitonealy”, “mice. Bone marrow was harvested at 20 and 60 minutes for assessment of ERK phosphorylation and Egr-1 mRNA expression.” for “mice.”

[5] = target: T1, GPRC6A; assay: phospho-ERK activation in HEK-293 cells transfected with GPRC6A (immunoblot); assay type: cell-based; design: expressed in transfected cells; host or cells: HEK-293
Method: as §1

[6] = HEK-293 cells transfected with GPRC6A

C[C@]12CC[C@H]3[C@@H](CCC4=CC(=O)CC[C@@]43C)[C@@H]1CC[C@@H]2O [testosterone]
recovery of seminal vesicle size ([1]; orchidectomized GPRC6A-/- mice): weaker compared to wild-type
recovery of seminal vesicle size ([1]; orchidectomized wild-type mice): effectively recovered the size of seminal vesicles
phospho-ERK response [2]: did not responded
specific testosterone binding to plasma membranes [3, 6]: Significant amounts of specific testosterone binding
specific testosterone binding to plasma membranes ([3]; untransfected cells): negligible specific binding
Egr-1 expression in bone marrow and testes ([4]; GPRC6A-/- male mice): markedly attenuated
phospho-ERK activity in bone marrow and testes ([4]; GPRC6A-/- male mice): markedly attenuated
Egr-1 expression in bone marrow and testes ([4]; wild-type male mice): stimulated
phospho-ERK activity in bone marrow and testes ([4]; wild-type male mice): stimulated
medium calcium concentration required for testosterone activation of GPRC6A [5]: > 0.5 mM
activation of phospho-ERK in cytosol and nucleus ([5]; GPRC6A expressing HEK-293 cells): stimulated activation of phospho-ERK in both the cytosol and nucleus
GPRC6A-mediated activation of phospho-ERK [5, 6]: stimulated extracellular signal-regulated kinase phosphorylation (phospho-ERK) in a dose-dependent fashion
